Experimental data from paper PMC3600725 (CPT: Pharmacometrics & Systems Pharmacology, 2013).
Entries after “also recorded” stand apart in the source; their conditions may differ. Read-outs that look alike come from different tables or passages of the source.

What was measured:
[1] = biological target: MRP2 (Homo sapiens, UniProt Q92887); details: 50 µmol/l MK571; cited from earlier work
[2] = system: human sandwich-cultured hepatocytes (SCH); assay: Accumulation, BEI and in vitro clearance in human SCH; type: in vitro ADME
[3] = Estimated portal vein concentration of ritonavir; design: species or system human
[4] = type: in vivo, human
[5] = cited from earlier work
[6] = cited from earlier work; remark: listed apart in the source
[7] = from human SCH data, well-stirred model, mean ± SD of n=3 donors
[8] = 2 × 300 mg oral ritonavir 14 and 2 h before, mean ± SD, n = 3
[9] = ^99mTc–mebrofenin alone (control), mean ± SD, n = 8

MRP2, sequence (Q92887 whole entry): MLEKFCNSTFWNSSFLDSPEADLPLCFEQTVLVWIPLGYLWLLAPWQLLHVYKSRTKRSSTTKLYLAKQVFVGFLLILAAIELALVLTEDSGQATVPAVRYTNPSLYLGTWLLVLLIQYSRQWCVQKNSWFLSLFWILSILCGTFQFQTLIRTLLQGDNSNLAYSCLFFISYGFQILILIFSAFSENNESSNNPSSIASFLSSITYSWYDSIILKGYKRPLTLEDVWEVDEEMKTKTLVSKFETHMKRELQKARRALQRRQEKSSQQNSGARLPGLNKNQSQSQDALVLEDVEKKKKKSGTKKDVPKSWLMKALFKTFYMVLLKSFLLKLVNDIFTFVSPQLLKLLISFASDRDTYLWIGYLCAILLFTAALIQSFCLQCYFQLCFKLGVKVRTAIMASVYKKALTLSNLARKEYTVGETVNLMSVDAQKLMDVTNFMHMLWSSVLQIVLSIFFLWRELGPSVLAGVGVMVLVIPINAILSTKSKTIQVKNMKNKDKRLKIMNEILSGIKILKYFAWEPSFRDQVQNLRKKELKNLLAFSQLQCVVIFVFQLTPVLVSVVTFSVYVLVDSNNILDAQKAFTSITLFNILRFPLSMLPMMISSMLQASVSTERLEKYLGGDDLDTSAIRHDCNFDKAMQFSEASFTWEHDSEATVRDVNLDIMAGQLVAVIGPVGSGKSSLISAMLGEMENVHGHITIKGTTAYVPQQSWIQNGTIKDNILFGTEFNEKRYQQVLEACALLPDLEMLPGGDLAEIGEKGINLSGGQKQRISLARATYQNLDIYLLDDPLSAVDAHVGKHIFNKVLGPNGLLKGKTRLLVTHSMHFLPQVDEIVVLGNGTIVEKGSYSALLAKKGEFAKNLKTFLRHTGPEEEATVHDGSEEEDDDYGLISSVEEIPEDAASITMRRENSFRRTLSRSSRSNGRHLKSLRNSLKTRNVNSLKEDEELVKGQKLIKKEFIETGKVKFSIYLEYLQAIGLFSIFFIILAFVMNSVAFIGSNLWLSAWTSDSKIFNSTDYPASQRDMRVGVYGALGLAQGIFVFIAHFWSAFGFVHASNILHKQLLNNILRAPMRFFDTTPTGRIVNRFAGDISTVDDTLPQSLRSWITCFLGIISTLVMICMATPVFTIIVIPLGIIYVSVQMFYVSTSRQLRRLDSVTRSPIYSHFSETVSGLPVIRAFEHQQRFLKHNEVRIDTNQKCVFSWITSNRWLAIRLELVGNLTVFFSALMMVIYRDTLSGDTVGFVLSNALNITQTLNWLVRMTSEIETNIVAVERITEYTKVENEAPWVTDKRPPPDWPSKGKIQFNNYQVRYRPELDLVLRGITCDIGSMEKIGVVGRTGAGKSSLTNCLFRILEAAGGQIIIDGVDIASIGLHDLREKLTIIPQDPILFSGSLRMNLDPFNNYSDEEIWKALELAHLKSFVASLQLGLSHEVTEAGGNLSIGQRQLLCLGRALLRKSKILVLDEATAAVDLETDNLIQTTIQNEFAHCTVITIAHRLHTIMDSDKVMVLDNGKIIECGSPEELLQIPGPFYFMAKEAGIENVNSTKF

For `CN(C)C(=O)CCSC(SCCC(=O)O)c1cccc(/C=C/c2ccc3ccc(Cl)cc3n2)c1` (stereo not shown) [MK571], the “Reduction of ATP-dependent transport of ^99mTc–mebrofenin (MRP2 vesicles)” value [1] is given as 88 ± 2%.

In the case of `CC(C)c1nc(CN(C)C(=O)N[C@H](C(=O)N[C@@H](Cc2ccccc2)C[C@H](O)[C@H](Cc2ccccc2)NC(=O)OCc2cncs2)C(C)C)cs1` [Ritonavir], the “Total cellular accumulation of ritonavir (Ccell,total)” value ([2]; human SCH) is reported as “up to 100 µmol/l” and the “Maximum estimated portal vein concentration” value [3] is reported as “up to 45 µmol/l”.

For `Cc1cc(C)c(NC(=O)CN(CC(=O)[O-])CC(=O)[O-])c(C)c1Br.Cc1cc(C)c(NC(=O)CN(CC(=O)[O-])CC(=O)[O-])c(C)c1Br.[99Tc+4]` [^99mTc–mebrofenin, ^99mTechnetium–mebrofenin], the “CLbiliary, Predicted In Vivo Clearance” value [2, 7] was 4.4 ± 1.5 mL/min/kg, the “CLuptake, Predicted In Vivo Clearance” value [2, 7] was 10.6 ± 3.1 mL/min/kg and the “In vitro intrinsic CLuptake lower than semi-PBPK CLuptake,h” value ([2]; human SCH vs Table 2 estimate) was ~ 50 fold. The “CLuptake, In Vitro Intrinsic Clearance” value ([2]; human SCH, mean ± SD of n=3 donors) was ~ 24 mL/min/kg, the “AUC0–∞ (blood)” value [4, 8] was 4,464 ± 1,861 nCi·min/ml and the Biliary recovery [4, 8] was 72 ± 2 % Dose. For the same compound, the “Change in AUCblood,0-∞ (systemic exposure)” value ([4]; 2 × 300 mg ritonavir as compared with control) was “significantly greater, by approximately twofold; also recorded: twofold increase”, the Biliary recovery ([4]; 2 h after single 200 mg oral ritonavir, mean ± SD, n = 7) was 59 ± 11 % Dose and the “AUC0–∞ (blood)” value [4, 9] was 1,970 ± 311 nCi·min/ml. For the same compound, the Biliary recovery [4, 9] was 75 ± 12 % Dose, the CLbiliary [4, 9] was 12.5 ± 2.5 mL/min/kg and the Urinary recovery ([4]; all groups, unaffected by ritonavir treatment) was ~ 1 % of the administered dose. For the same compound, the “Hepatic extraction ratio (CLtotal/Qh)” value ([4]; control subjects, mean ± SD) was 0.80 ± 0.16, the “Hepatic elimination half-life, previous reports” value [5] was ~ 15 min and the “Time of maximum liver concentration, reported value” [5] was 11 min. For the same compound, the “Hepatic extraction, previous reports” value [6] was ~ 100%.
